Experimental data published in patent US20230151034A1 (COCRYSTAL PHARMA, INC., priority 2020, published 2023).
Read-outs that look alike come from different tables or passages of the source. Where a SMILES comes first, the peptide text is derived from it. [ ]: non-standard residue; d: D form. The star is where a group is joined. ξ: configuration not given here. ξαMeE = CC(N)(CCC(=O)O)C(=O)O; Nonanoyl = CCCCCCCCC(=O)*

Legend:
[1] = target: HuNV GGII.4 Norovirus protease (Norovirus GII.4 (human norovirus genogroup II genotype 4), UniProt P54634); assay: Norovirus protease FRET assay (HuNV GGII.4); type: biochemical
Chain of HuNV GGII.4 Norovirus protease (P54634 1009-1189): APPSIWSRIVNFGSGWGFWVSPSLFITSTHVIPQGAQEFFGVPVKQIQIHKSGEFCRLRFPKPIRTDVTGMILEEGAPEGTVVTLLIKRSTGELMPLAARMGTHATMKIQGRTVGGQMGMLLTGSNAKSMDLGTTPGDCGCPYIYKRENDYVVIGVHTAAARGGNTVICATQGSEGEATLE

[2] = target: Norwalk GGI.1 Norovirus protease (Norovirus, UniProt Q83883); assay: Noro-Norwalk FRET protease assay (Norwalk GGI.1); type: biochemical, Norwalk virus
Chain of Norwalk GGI.1 Norovirus protease (Q83883 1101-1281): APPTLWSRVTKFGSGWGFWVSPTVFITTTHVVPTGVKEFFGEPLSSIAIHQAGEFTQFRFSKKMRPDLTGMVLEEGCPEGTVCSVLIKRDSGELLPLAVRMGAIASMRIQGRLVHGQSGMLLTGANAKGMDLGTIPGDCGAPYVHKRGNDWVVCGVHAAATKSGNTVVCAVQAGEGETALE
Protocol: Viral protease assays: The antiviral activities of inhibitors were determined by FRET (Fluorescence Resonance Energy Transfer) assay. Purified viral protease was incubated with the protease substrate peptide (Edans-DFHLQ/GP-Dabcyl) and inhibitor, and IC50 values were subsequently determined by the fluorescence signals.
The Noro-Norwalk FRET protease assay was performed in 50 mM HEPES-Na pH 8, 50 mM NaCl, 0.4 mM EDTA, 4% glycerol, and 6 mM DTT. A self-quenching peptide substrate [5-FAM]-[…]-[TAMRA] was custom synthesized by Anaspec. Compounds were diluted in 3-fold serial dilutions to final concentrations of 200 μM to 10.2 nM. Noro protease was added to a final concentration of 1-7 μM, depending on the enzyme activity level, and the peptide substrate was added to a final concentration of 10 μM. The assay was incubated 90 minutes at 37° C. and read in a Perkin Elmer Envision with excitation at 473 nm and emission measurement at 519 nm.

SARS2 protease = SARS2 protease (Severe acute respiratory syndrome coronavirus 2, UniProt P0DTD1); assay: SARS-CoV-2 protease inhibition assay (SARS2 FRET protease assay); type: biochemical
Outline: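 SARS-CoV-2 protease (25 nM) was incubated for 30 min at 30 °C with 1.3 μM quenched 5-FAM/TAMRA peptide substrate and compound (3-fold dilutions, 20 μM–1.0 nM). The buffer was 20 mM HEPES-Na pH 7, 120 mM NaCl, 0.4 mM EDTA, 0.01% Triton, 5% glycerol and 4 mM DTT. Fluorescence was read at ex 473 and em 519 nm, and IC50 was derived.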

[3] = Table C, FRET protease assay, read-out: HuNV GGII.4 IC50
[4] = Table C, FRET protease assay, read-out: Norwalk GGI.1 IC50
[5] = Table E, SARS-CoV-2 protease inhibition, read-out: IC50
[6] = Table D, FRET protease assay, read-out: HuNV GGII.4 IC50
[7] = Table D, FRET protease assay, read-out: Norwalk GGI.1 IC50

Structure (SMILES) | IC50 [1, 3] | IC50 [2, 4] | IC50 (SARS2 protease; [5]) | IC50 [1, 6] | IC50 [2, 7] | IC50 [1] | IC50 [2] | IC50 (SARS2 protease)
CCOP(=O)(OCC)C(O)[C@H](CCC(=O)N(C)Cc1ccccc1)NC(=O)[C@H](CC1CCCCC1)NC(=O)OCc1cccc(Cl)c1 (stereo partly drawn) [Compound A13, 3-Chlorobenzyl ((2S)-1-(((2S)-5-(benzyl (methyl)amino)-1-(diethoxyphosphoryl)-1-hydroxy-5-oxopentan-2-yl)amino)-3-cyclohexyl-1-oxopropan-2-yl) carbamate] | > 200 µM | 166 µM | > 200 µM |  |  |  |  | 
O=C[C@H](CCC(=O)N1CCOC(c2ccccc2)C1)NC(=O)[C@H](CC1CCCCC1)NC(=O)OCc1cccc(Cl)c1 (stereo in doubt) [Compound A45, 3-Chlorobenzyl ((2S)-3-cyclohexyl-1-(((2S)-1,5-dioxo-5-(2-phenylmorpholino)pentan-2-yl)amino)-1-oxopropan-2-yl)carbamate] | 18.8 µM | 11 µM | > 200 µM |  |  |  |  | 
CCOP(=O)(OCC)C(O)[C@H](CCC(=O)N(CC)CCc1ccccc1)NC(=O)[C@H](CC1CCCCC1)NC(=O)OCc1cccc(Cl)c1 (stereo partly drawn) [Compound A50, 3-Chlorobenzyl ((2S)-3-cyclohexyl-1-(((2S)-1-(diethoxyphosphoryl)-5-(ethyl(phenethyl)amino)-1-hydroxy-5-oxopentan-2-yl)amino)-1-oxopropan-2-yl)carbamate] | 95.7 µM | 97.4 µM | 9.7 µM |  |  |  |  | 
CN(CCc1cccc(Cl)c1)C(=O)CC[C@@H](CO)NC(=O)[C@H](CC1CCCCC1)NC(=O)OCc1cccc(Cl)c1 [Compound A24, 3-Chlorobenzyl ((S)-1-(((S)-5-((3-chlorophenethyl)(methyl)amino)-1-hydroxy-5-oxopentan-2-yl)amino)-3-cyclohexyl-1-oxopropan-2-yl)carbamate] | 123 µM | > 200 µM | > 200 µM |  |  |  |  | 
CN(CCc1cccc(Cl)c1)C(=O)CC[C@@H](C=O)NC(=O)[C@H](CC1CCCCC1)NC(=O)OCc1cccc(Cl)c1 (stereo in doubt) [Compound A33, 3-Chlorobenzyl ((S)-1-(((S)-5-((3-chlorophenethyl)(methyl)amino)-1,5-dioxopentan-2-yl)amino)-3-cyclohexyl-1-oxopropan-2-yl)carbamate] | > 200 µM | 117 µM | > 200 µM |  |  |  |  | 
CON(C)C(=O)[C@H](CCC(=O)N(C)CCc1ccccc1Cl)NC(=O)[C@H](CC1CCCCC1)NC(=O)OCc1cccc(Cl)c1 (stereo in doubt) [Compound A39, 3-Chlorobenzyl ((S)-1-(((S)-5-((2-chlorophenethyl)(methyl)amino)-1-(methoxy(methyl)amino)-1,5-dioxopentan-2-yl)amino)-3-cyclohexyl-1-oxopropan-2-yl)carbamate] | 100 µM | 119 µM | 5.3 µM |  |  |  |  | 
CCCCCCCC1CC/C=C/CC(C(=O)NC)C[C@@H](C(=O)N(C)OC)NC(=O)C(CC(C)C)NC(=O)O1 (single isomer, unassigned) [Compound B37] |  |  | > 200 µM | > 200 µM | > 200 µM |  |  | 
CCCCCCCCC(=O)N[C@@H](CC(C)C)C(=O)NC(C)(C=O)CCC(=O)N(C)C (stereo partly drawn) [Compound A1, N-((2S)-1-((5-(dimethylamino)-2-methyl-1,5-dioxopentan-2-yl)amino)-4-methyl-1-oxopentan-2-yl)nonanamide] (Nonanoyl-Leu-[ξαMeE](NMe2)-aldehyde) | > 200 µM | > 200 µM | > 200 µM |  |  |  |  | 
CCOCCN(C)C(=O)CC[C@H](NC(=O)C(CC1CCCCC1)NC(=O)OCc1cccc(Cl)c1)C(O)P(=O)(OCC)OCC (stereo in doubt) [Compound A12, 3-chlorobenzyl ((2S)-3-cyclohexyl-1-(((2S)-1-(diethoxyphosphoryl)-5-((2-ethoxyethyl)(methyl)amino)-1-hydroxy-5-oxopentan-2-yl)amino)-1-oxopropan-2-yl)carbamate] | > 200 µM | 122 µM | 5.4 µM |  |  |  |  | 
CN(C(=O)CC[C@@H](C=O)NC(=O)[C@H](CC1CCCCC1)NC(=O)OCc1cccc(Cl)c1)c1ccccc1 [Compound A19, 3-Chlorobenzyl ((S)-3-cyclohexyl-1-(((S)-5-(methyl (phenyl)amino)-1,5-dioxopentan-2-yl)amino)-1-oxopropan-2-yl) carbamate] | 3.3 µM | 1 µM | 40.3 µM |  |  |  |  | 
CCS(=O)(=O)NCCN(C)C(=O)CC[C@@H](C=O)NC(=O)[C@H](CC1CCCCC1)NC(=O)OCc1cccc(Cl)c1 (stereo in doubt) [Compound A38, 3-Chlorobenzyl ((S)-3-cyclohexyl-1-(((S)-5-((2-(ethylsulfonamido)ethyl)(methyl)amino)-1,5-dioxopentan-2-yl)amino)-1-oxopropan-2-yl)carbamate] | 30.6 µM | 10.1 µM | 36 µM |  |  |  |  | 
CCCCCN(C)C(=O)CC[C@H](NC(=O)[C@H](CC1CCCCC1)NC(=O)OCc1cccc(Cl)c1)C(O)P(=O)(OCC)OCC (stereo partly drawn) [Compound A9, 3-chlorobenzyl ((2S)-3-cyclohexyl-1-(((2S)-1-(diethoxyphosphoryl)-1-hydroxy-5-(methyl(pentyl)amino)-5-oxopentan-2-yl)amino)-1-oxopropan-2-yl)carbamate] | 154 µM | 14 µM | > 200 µM |  |  |  |  | 
CCNC(=O)NCCN(C)C(=O)CC[C@H](NC(=O)[C@H](CC1CCCCC1)NC(=O)OCc1cccc(Cl)c1)C(O)P(=O)(OCC)OCC (stereo partly drawn) [Compound A16, 3-Chlorobenzyl ((12S,15S)-16-cyclohexyl-12-((diethoxyphosphoryl)(hydroxy)methyl)-8-methyl-4,9,14-trioxo-3,5,8,13-tetraazahexadecan-15-yl)carbamate] | > 200 µM | 81.9 µM | > 200 µM |  |  |  |  | 
CON(C)C(=O)C1CC(C(=O)N(C)C)CCCCCC(Cc2ccccc2)OC(=O)N[C@@H](CC(C)C)C(=O)N1 (stereo in doubt) [Compound B43, (4S,7S)-15-benzyl-4-isobutyl-N7-methoxy-N7,N9,N9-trimethyl-2,5-dioxo-1-oxa-3,6-diazacyclopentadecane-7,9-dicarboxamide] |  |  | > 200 µM | 105 µM | 105 µM |  |  | 
CCNC(=O)OCCN(C)C(=O)CC[C@@H](C=O)NC(=O)[C@H](CC1CCCCC1)NC(=O)OCc1cccc(Cl)c1 (stereo in doubt) [Compound A46, 3-Chlorobenzyl ((12S, 15S)-16-cyclohexyl-12-formyl-8-methyl-4,9,14-trioxo-5-oxa-3,8,13-triazahexadecan-15-yl)carbamate] | 28 µM | 8.6 µM | > 200 µM |  |  |  |  | 
CCCCCN(C)C(=O)CC[C@@H](C=O)NC(=O)[C@H](CC1CCCCC1)NC(=O)OCc1cccc(Cl)c1 [Compound A7, 3-chlorobenzyl ((S)-3-cyclohexyl-1-(((S)-5-(methyl(pentyl)amino)-1,5-dioxopentan-2-yl)amino)-1-oxopropan-2-yl)carbamate] | 11.1 µM | 1.6 µM | 3.2 µM |  |  |  |  | 
CCCCCCCC1CCC/C=C/CC(C(=O)N(C)C)C[C@@H](C=O)NC(=O)C(CC(C)C)NC1=O (stereo partly drawn) [Compound B4] |  |  | 156 µM | 149 µM | 149 µM |  |  | 
CN(C)C(=O)CC[C@@H](C=O)NC(=O)[C@H](CC1CCCCC1)NC(=O)OCc1cccc(Cl)c1 [Compound A6, 3-chlorobenzyl ((S)-3-cyclohexyl-1-(((S)-5-(dimethylamino)-1,5-dioxopentan-2-yl)amino)-1-oxopropan-2-yl)carbamate] | 18.7 µM | 2 µM | > 200 µM |  |  |  |  | 
CCOCCOCCN(C)C(=O)CC[C@H](NC(=O)C(CC1CCCCC1)NC(=O)OCc1cccc(Cl)c1)C(O)P(=O)(OCC)OCC (stereo in doubt) [Compound A11, 3-Chlorobenzyl ((13S,16S)-17-cyclohexyl-13-((diethoxyphosphoryl)(hydroxy)methyl)-9-methyl-10,15-dioxo-3,6-dioxa-9,14-diazaheptadecan-16-yl)carbamate] | 114 µM | 133 µM | > 200 µM |  |  |  |  | 
CCCC1CCCC/C=C/CC(C(=O)N(C)Cc2ccc(OC)cc2OC)C[C@@H](C(O)P(=O)(OCC)OCC)NC(=O)[C@H](CC(C)C)NC1=O (stereo partly drawn) [Compound B25, Diethyl (((2S,5S,E)-7-((2,4-dimethoxybenzyl)(methyl)carbamoyl)-2-isobutyl-3,16-dioxo-15-propyl-1,4-diazacyclohexadec-9-en-5-yl)(hydroxy)methyl)phosphonate] |  |  |  |  |  | 177 µM | 177 µM | > 200 µM
CON(C)C(=O)[C@H](CCC(=O)N1CCCC(c2ccccc2)C1)NC(=O)[C@H](CC1CCCCC1)NC(=O)OCc1cccc(Cl)c1 (stereo in doubt) [Compound A43, 3-chlorobenzyl ((2S)-3-cyclohexyl-1-(((2S)-1-(methoxy(methyl)amino)-1,5-dioxo-5-(3-phenylpiperidin-1-yl)pentan-2-yl)amino)-1-oxopropan-2-yl)carbamate] | > 200 µM | 135 µM | 185 µM |  |  |  |  | 
